Test results from PMC4144908, “Structural Insights of the ssDNA Binding Site in the Multifunctional Endonuclease AtBFN2 from Arabidopsis thaliana” (PLoS ONE, 2014).

Columns and labels:
AtBFN2 [1] = target: T1, AtBFN2 (Arabidopsis thaliana, UniProt Q9C9G4); parameters: gene ENDO2; settings: active site, tri-zinc cluster; crystals grown with 0.2 M Na2HPO4, 0.1 M Hepes pH 7.5
T1 sequence (Q9C9G4 28-290): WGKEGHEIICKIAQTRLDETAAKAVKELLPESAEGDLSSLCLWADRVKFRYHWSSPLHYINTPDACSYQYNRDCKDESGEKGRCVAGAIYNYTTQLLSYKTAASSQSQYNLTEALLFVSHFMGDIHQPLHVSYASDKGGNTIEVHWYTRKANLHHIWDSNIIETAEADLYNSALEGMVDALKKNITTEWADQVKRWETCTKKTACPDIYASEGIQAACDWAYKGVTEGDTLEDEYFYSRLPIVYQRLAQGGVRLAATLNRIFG

AtBFN2 [2] = target: T1, AtBFN2; assay: acid-soluble ssDNA release, A260; type: biochemical; parameters: gene ENDO2; ENDO2 cDNA with C-terminal 6xHis tag, overexpressed in transgenic Arabidopsis seedlings; three Zn ions; settings: heat-denatured ssDNA substrate; 100 mM Tris pH 7, 37 °C, 10 min; 1 mM Na3VO4

O=P(O)(O)O [phosphate]
X-ray crystal structure, 2.0 Å (AtBFN2 [1]): have a phosphate anion displacing all coordinating waters, except Wat3 (Fig. 2D)

[O]=[V]([OH])([OH])[OH] [vanadate]
% inhibition at 1 mM (AtBFN2 [2]): 80%
